# Experimental data taken from US10100056B2, “SHIP1 modulators and methods related thereto” (Aquinox Pharmaceuticals (Canada) Inc., priority 2013, dated 2018).
# Target: T1, His-hSHIP1 enzyme (Homo sapiens, UniProt Q92835)
# T1 construct: His
# T1 sequence (Q92835 1-1189): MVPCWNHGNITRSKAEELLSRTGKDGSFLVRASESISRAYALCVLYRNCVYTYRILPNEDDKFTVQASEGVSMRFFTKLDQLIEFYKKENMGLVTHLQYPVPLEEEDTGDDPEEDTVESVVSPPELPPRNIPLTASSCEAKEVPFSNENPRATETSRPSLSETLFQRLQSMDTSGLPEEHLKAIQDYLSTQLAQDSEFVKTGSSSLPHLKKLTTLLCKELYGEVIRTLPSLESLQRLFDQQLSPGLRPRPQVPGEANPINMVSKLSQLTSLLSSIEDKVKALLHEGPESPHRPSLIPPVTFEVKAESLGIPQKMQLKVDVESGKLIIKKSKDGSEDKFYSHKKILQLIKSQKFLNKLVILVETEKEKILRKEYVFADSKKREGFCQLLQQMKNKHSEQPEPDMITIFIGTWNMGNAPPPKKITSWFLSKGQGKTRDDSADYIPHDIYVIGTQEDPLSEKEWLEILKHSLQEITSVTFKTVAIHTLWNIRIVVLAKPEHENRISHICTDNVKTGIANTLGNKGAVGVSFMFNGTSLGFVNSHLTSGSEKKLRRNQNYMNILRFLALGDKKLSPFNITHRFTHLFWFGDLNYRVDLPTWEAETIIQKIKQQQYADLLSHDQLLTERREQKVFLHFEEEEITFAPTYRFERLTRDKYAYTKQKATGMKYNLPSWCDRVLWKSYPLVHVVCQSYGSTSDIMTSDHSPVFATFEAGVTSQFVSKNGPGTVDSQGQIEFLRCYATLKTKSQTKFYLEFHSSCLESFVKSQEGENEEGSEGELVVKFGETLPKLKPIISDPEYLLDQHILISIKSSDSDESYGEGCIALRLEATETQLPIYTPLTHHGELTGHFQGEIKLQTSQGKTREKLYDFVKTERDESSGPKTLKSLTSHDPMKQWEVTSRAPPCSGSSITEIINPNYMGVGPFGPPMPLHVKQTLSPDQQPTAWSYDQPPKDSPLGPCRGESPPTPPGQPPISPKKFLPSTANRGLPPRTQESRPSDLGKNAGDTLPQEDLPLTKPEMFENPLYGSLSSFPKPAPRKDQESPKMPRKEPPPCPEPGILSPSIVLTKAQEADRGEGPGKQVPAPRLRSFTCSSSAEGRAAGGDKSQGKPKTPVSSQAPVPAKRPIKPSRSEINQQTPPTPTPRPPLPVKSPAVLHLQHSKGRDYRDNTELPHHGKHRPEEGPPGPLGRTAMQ
# Assay: His-hSHIP1 activity (phosphatase assay, IP4 substrate, Biomol Green)
# Format: biochemical
# Set-up: key to Scoring, Approach 2 (Initial velocity Ratio): +++: higher than reference or reference - 15%; ++: reference - 16% to reference - 30%; +: reference - 31% or lower; −: inhibitor
# Conditions: second approach: ratio of initial velocities IP4 25/250 μM compared with reference compound; values without asterisk
# Protocol: Test compounds are dissolved in 95% ethanol to form stock solutions. Before screening, the stock solutions are diluted with Phosphatase Assay Buffer (20 mM Tris-HCL, 10 mM MgCl2 pH 7.5, 0.02% Tween 20) to form working assay solutions that contain 10% ethanol. The assay is carried out on 96-well microtiter plates using a modified procedure of that reported by Ong et al., Blood 110, 1942-1949, 2007 and Yang et al., Org Lett 7, 1073-1076, 2005, both of which references are incorporated herein by reference in their entirety.
# Data were generated by one of two variant methods. Test compounds are screened by one of two approaches described as follows. In the first approach, each reaction contains 5 μL of His-hSHIP1 enzyme (5-20 ng), 10 μL of the substrate, 1,3,4,5-inositol tetrakisphosphate (IP4; 50 μM final), 5 μL of Phosphatase Assay Buffer, and 5 µL of test compound at various concentrations in 10% ethanol (0-300 μM final). Control blanks are also prepared by replacing His-hSHIP1 enzyme, IP4, or test compounds with Phosphatase Assay Buffer. After adding the reaction components in a 96-well microtiter plate on ice, the reaction is mixed by briefly shaking the plate vigorously. The reaction is then incubated at 37° C. for 15 min with gentle shaking followed by addition of 100 μL of Biomol Green Reagent (BIOMOL, PA, USA) to terminate the reaction. The free phosphate released from IP4 by His-hSHIP1 binds to the Biomol Green Reagent, which turns the dye to green color. After incubating the mixture for 20 min at room temperature for color development, the absorbance is read with SpectraMax Plus 96-well plate reader (Molecular Devices, Sunnyvale, Calif., USA) at a wavelength of 650 nm.
# In the second approach, a master mix is prepared that contains 50 μL of His-hSHIP1 enzyme (0.4-1.6 ng/μL final), 25 μL of the substrate, IP4 (25 or 250 μM final), and 50 μL of test compound in 3.3% ethanol (100 μL final). Control blanks are also prepared by replacing His-hSHIP1 enzyme, IP4, or test compounds with Phosphate Assay Buffer. […] Each reaction component is preincubated at 37° C. for 30 min before adding to a 96-well microtiter plate. The master mix is then incubated at 37° C. At time 0, 20, and 30 min, 25 μL of the master mix is removed and transferred to a new 96-well microtiter plate, to which 100 μL of Biomol Green Reagent is added to stop the reaction. After incubating the mixture for 20 min at room temperature for color development, the absorbance is read with SpectraMax Plus 96-well plate reader at a wavelength of 650 nm. Phosphate released is plotted against time to calculate the initial velocities (i.e., slope of the graph) at each IP4 concentration. The initial velocities are baseline corrected and the ratio of initial velocities (IP425/IP4250) is calculated and used to rate the test compounds.
row,Structure (SMILES),"Scoring, Approach 2 (Initial velocity Ratio)"
1,"CC1(C)CCC2=C1CC[C@H]([C@@]1(C)CC[C@H](O)C[C@@H]1CO)[C@H]2CNCC1CC1 [Cpd. No. 2, (1S,3S,4R)-4-((4R,5S)-4-((cyclopropylmethylamino)methyl)-1,1-dimethyl-2,3,4,5,6,7-hexahydro-1H-inden-5-yl)-3-(hydroxymethyl)-4-methylcyclohexanol]",+
2,"CC(=O)NC[C@H]1C2=C(CC[C@@H]1[C@@]1(C)CC[C@H](O)C[C@@H]1CO)C(C)(C)CC2 [Cpd. No. 4, N-(((4R,5S)-5-((1R,2S,4S)-4-hydroxy-2-(hydroxymethyl)-1-methylcyclohexyl)-1,1-dimethyl-2,3,4,5,6,7-hexahydro-1H-inden-4-yl)methyl)acetamide]",+
3,"CNC[C@H]1C2=C(CC[C@@H]1[C@@]1(C)CC[C@H](O)C[C@@H]1CO)C(C)(C)CC2 [Cpd. No. 5, (1S,3S,4R)-4-((4R,5S)-1,1-dimethyl-4-((methylamino)methyl)-2,3,4,5,6,7-hexahydro-1H-inden-5-yl)-3-(hydroxymethyl)-4-methylcyclohexanol]",+++
4,"CC1(C)CCC2=C1CC[C@H]([C@@]1(C)CC[C@H](O)C[C@@H]1CO)[C@H]2CNS(C)(=O)=O [Cpd. No. 7, N-(((4R,5S)-5-((1R,2S,4S)-4-hydroxy-2-(hydroxymethyl)-1-methylcyclohexyl)-1,1-dimethyl-2,3,4,5,6,7-hexahydro-1H-inden-4-yl)methyl)methanesulfonamide]",+

# Results, then the molecule that gave them:
row,"Scoring, Approach 2 (Initial velocity Ratio)",Structure (SMILES)
1,+,"CC1(C)CCC2=C1CC[C@H]([C@@]1(C)CC[C@H](O)C[C@@H]1CO)[C@H]2CNC(=O)c1ccccc1 [Cpd. No. 8, N-(((4R,5S)-5-((1R,2S,4S)-4-hydroxy-2-(hydroxymethyl)-1-methylcyclohexyl)-1,1-dimethyl-2,3,4,5,6,7-hexahydro-1H-inden-4-yl)methyl)benzamide]"
2,−,"C=C1CC[C@H]2[C@H](CNCc3ccc(F)cc3)[C@@H]([C@@]3(C)CC[C@H](O)C[C@@H]3CO)CC[C@]12C [Cpd. No. 10, (1S,3S,4R)-4-((3aS,4R,5S,7aS)-4-((4-fluorobenzylamino)methyl)-7a-methyl-1-methyleneoctahydro-1H-inden-5-yl)-3-(hydroxymethyl)-4-methylcyclohexanol]"
3,++,"C=C1CC[C@H]2[C@H](CNCc3ccccc3C)[C@@H]([C@@]3(C)CC[C@H](O)C[C@@H]3CO)CC[C@]12C [Cpd. No. 15, (1S,3S,4R)-3-(hydroxymethyl)-4-methyl-4-((3aS,4R,5S,7aS)-7a-methyl-4-((2-methylbenzylamino)methyl)-1-methyleneoctahydro-1H-inden-5-yl)cyclohexanol]"
4,++,"C=C1CC[C@H]2[C@H](Cn3cccn3)[C@@H]([C@@]3(C)CC[C@H](O)C[C@@H]3CO)CC[C@]12C [Cpd. No. 26, (1S,3S,4R)-4-((3aS,4R,5S,7aS)-4-((1H-pyrazol-1-yl)methyl)-7a-methyl-1-methyleneoctahydro-1H-inden-5-yl)-3-(hydroxymethyl)-4-methylcyclohexanol]"
5,++,"C=C1CC[C@H]2[C@H](CNCc3ccc4c(c3)OC(F)(F)O4)[C@@H]([C@@]3(C)CC[C@H](O)C[C@@H]3CO)CC[C@]12C [Cpd. No. 37, (1S,3S,4R)-4-((3aS,4R,5S,7aS)-4-(((2,2-difluorobenzo[d][1,3]dioxol-5-yl)methylamino)methyl)-7a-methyl-1-methyleneoctahydro-1H-inden-5-yl)-3-(hydroxymethyl)-4-methylcyclohexanol]"
6,++,"C=C1CC[C@H]2[C@H](CCN(Cc3ccc(OC)cc3)Cc3ccc(OC)cc3)[C@@H]([C@@]3(C)CC[C@H](O)C[C@@H]3O)CC[C@]12C [Cpd. No. 43, (1S,3S,4R)-4-((3aS,4S,5S,7aS)-4-(2-(bis(4-methoxybenzyl)amino)ethyl)-7a-methyl-1-methyleneoctahydro-1H-inden-5-yl)-4-methylcyclohexane-1,3-diol]"
